Several values for one entry are separate records, joined by “and”; a condition that tells them apart may be missing. Equal values may be shown once.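 Compound exposure: 48 hours, 5 concentrations, 96-well plates. GI50 is the concentration that inhibits growth by half. At the TGI there is no net growth.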
Columns and labels:
Assay in all cases: NCI-60 cell line screen, 48 h
BT-549 breast = system: BT-549 breast
CCRF-CEM leukemia = system: CCRF-CEM leukemia
COLO 205 colon = system: COLO 205 colon
HL-60(TB) leukemia = system: HL-60(TB) leukemia
K-562 leukemia = system: K-562 leukemia
NCI-H226 lung = system: NCI-H226 lung
NCI-H460 lung = system: NCI-H460 lung
PC-3 prostate = system: PC-3 prostate
SF-268 CNS = system: SF-268 CNS
SK-MEL-2 melanoma = system: SK-MEL-2 melanoma
SK-MEL-28 melanoma = system: SK-MEL-28 melanoma
SK-MEL-5 melanoma = system: SK-MEL-5 melanoma
SW-620 colon = system: SW-620 colon
T-47D breast = system: T-47D breast
UACC-257 melanoma = system: UACC-257 melanoma
UACC-62 melanoma = system: UACC-62 melanoma
UO-31 renal = system: UO-31 renal
HOP-92 NSCLC = system: HOP-92 NSCLC

| Compound | TGI (BT-549 breast) | TGI (CCRF-CEM leukemia) | TGI (COLO 205 colon) | TGI (HL-60(TB) leukemia) | TGI (K-562 leukemia) | TGI (NCI-H226 lung) | TGI (NCI-H460 lung) | TGI (PC-3 prostate) | TGI (SF-268 CNS) | TGI (SK-MEL-2 melanoma) | TGI (SK-MEL-28 melanoma) | TGI (SK-MEL-5 melanoma) | TGI (SW-620 colon) | TGI (T-47D breast) | TGI (UACC-257 melanoma) | TGI (UACC-62 melanoma) | GI50 (CCRF-CEM leukemia) [µM] | GI50 (UACC-62 melanoma) [µM] | TGI (UO-31 renal) | TGI (HOP-92 NSCLC) [µM] |
| --- | --- | --- | --- | --- | --- | --- | --- | --- | --- | --- | --- | --- | --- | --- | --- | --- | --- | --- | --- | --- |
| Nc1ccc(Nc2c3ccccc3nc3ccccc23)cc1 | > 10 µM | 6.19 µM | > 10 µM | > 10 µM | > 10 µM | 7.52 µM | 8.07 µM | > 10 µM | > 10 µM | > 10 µM | > 10 µM | > 10 µM | > 10 µM | > 10 µM | > 10 µM | 5.22 µM |  |  |  |  |
| COc1ccc(OC)c(C#Cc2ccc(OC)c(C(=O)NCCc3ccc(F)cc3)c2)c1 | > 100 µM | > 100 µM | > 100 µM | > 100 µM | > 100 µM |  | > 100 µM | > 100 µM | > 100 µM | > 100 µM |  | > 100 µM | > 100 µM | > 100 µM | > 100 µM | > 100 µM | 4.72 | 5.96 | > 100 µM |  |
| O=C(O)Cc1cccc2c1OC(c1ccccc1)C(C(=O)c1ccccc1)C2=O (centres undefined) | > 100 µM | > 100 µM | > 100 µM | 50.9 µM | > 100 µM | > 100 µM | > 100 µM | > 100 µM | > 100 µM |  | > 100 µM | > 100 µM | > 100 µM | 56.9 µM | > 100 µM | 48.7 µM |  |  | > 100 µM |  |
| COc1ccc(C2CC(c3ccc4ccccc4c3O)=NN2C(C)=O)cc1OC (centres undefined) | > 100 µM | > 100 µM | > 100 µM |  | > 100 µM | > 100 µM | > 100 µM | > 100 µM | > 100 µM | > 100 µM | > 100 µM | > 100 µM | > 100 µM | > 100 µM | > 100 µM | > 100 µM |  |  | > 100 µM | > 100 |
| CN(C)CCCNc1ccnc2cc([N+](=O)[O-])ccc12 | 33.4 µM | > 100 µM | 7.9 µM |  | > 100 µM | 35 µM | 17.7 µM | 42.4 µM | 53.9 µM | 29.7 µM | 97.5 µM | 24.1 µM | 30 µM | 35.8 µM | 27.7 µM | 33.6 µM |  |  | 44.8 µM | 8.13 |
| COc1ccc2oc(=O)c3c(c2c1C)OC(C)(C)C=C3 | > 100 µM | > 100 µM | > 100 µM | > 100 µM | > 100 µM | > 100 µM | > 100 µM | > 100 µM | > 100 µM | > 100 µM | > 100 µM | > 100 µM | > 100 µM | > 100 µM | > 100 µM | > 100 µM |  |  | > 100 µM |  |
| CC#Cc1cc2c(cc1O)CC[C@@H]1[C@@H]2CC[C@]2(C)[C@@H](O)CC[C@@H]12 | 24.5 µM | > 100 µM | 33.4 µM |  | > 100 µM | 17.8 µM | 20.2 µM | 39 µM | > 100 µM | 15.1 µM | 23.7 µM | 13.8 µM | 11.1 µM | > 89.6 µM | 28.1 µM | 16.7 µM |  | 0.503 | 39 µM | 26.9 |
| COc1ccc2oc(=O)c(CC=C(C)C)c(O)c2c1C | > 100 µM | > 100 µM | > 100 µM | > 100 µM | > 100 µM | > 100 µM | > 100 µM | > 100 µM | > 100 µM | > 100 µM | > 100 µM | > 100 µM | > 100 µM | > 100 µM | > 100 µM | > 100 µM |  |  | > 100 µM |  |
| COc1ccc2c(c1)CC[C@@H]1[C@@H]2CC[C@]2(C)C(=O)/C(=C/c3ccncc3)C[C@@H]12 | > 100 µM | > 100 µM | > 100 µM |  | > 100 µM | > 100 µM | > 100 µM | > 100 µM | > 100 µM | 60.1 µM | 90.6 µM | 41.6 µM | 86 µM | > 100 µM | > 100 µM | > 100 µM |  |  | > 100 µM | 77.9 |
| Cc1ccc(CC2(OCCN(C)C)CCC(C(C)(C)C)CC2)cc1 (centres undefined) | 16.1 µM and 19.8 µM | 7.46 µM and 7.98 µM | 3.98 µM and 3 µM | 6.24 µM and 5.02 µM | 3.97 µM and 4.45 µM | 15.6 µM and 15.4 µM | 3.71 µM and 3.57 µM | 13.7 µM and 15.2 µM | 27.9 µM and 23.5 µM | 4.96 µM and 5.35 µM | 4.08 µM and 4.04 µM | 2.94 µM and 2.97 µM | 5.84 µM and 8 µM | 8.34 µM and 6.33 µM | 7.65 µM and 4.74 µM | 5.48 µM and 10 µM |  |  | 14.6 µM and 19 µM |  |
| CC1=C(C#N)C2C(=C(N)Oc3ccccc32)C(N)=N1 (centres undefined) | 93.5 µM | > 100 µM | 67 µM | > 100 µM | 90.8 µM | 66.2 µM |  | > 100 µM | 67.4 µM | > 100 µM |  | 49.5 µM | > 100 µM | 78.2 µM | 69.6 µM | 48.4 µM |  |  | 41.2 µM |  |

Reference: PubChem BioAssay (NCI)
